Assay results reported in patent publication US20030157704A1, “Reagents and methods for identifying and modulating expression of genes regulated by CDK inhibitors” (priority 2001, published 2003).

Legend:
Assay type in all cases: cell-based, human
[1] = test system: HT1080 p21-9 cells; test: Cell cycle distribution by FACS analysis of DNA content; conditions: 24 hrs of IPTG treatment
Procedure: Cell cycle distribution was determined using FACS analysis of DNA content after staining with propidium iodide as described by Jordan et al. (1996, Cancer Res. 56: 816-825) using Becton Dickinson FACSort. Cell cycle distribution stabilized after 24 hrs of IPTG treatment. By this time, 42-43% of IPTG-treated cells were arrested in G1 and G2, respectively, and about 15% of the cells were arrested with S-phase DNA content. IPTG-treated HT1080 p21-9 cells also developed morphological senescence markers (enlarged and flattened morphology and increased granularity), as well as SA-β-gal activity (Chang et al., 1999, ibid.).

[2] = test system: HS 15.T cells; test: Mitogenic activity assay, 3H-thymidine incorporation; conditions: 60 hr in media then 24 hrs 3H-thymidine
Procedure: To verify the induction of secreted mitogenic and anti-apoptotic factors by p21, conditioned media from IPTG-treated HT1080 p21-9 cells were tested to investigate whether they would have an effect on cell growth and apoptosis. In these experiments, conditioned media were prepared by plating 10^6 HT1080 p21-9 cells per 15 cm plate in the presence of DMEM/10% FCS. The next day, IPTG was added to a final concentration of 50 μM, and this media was replaced three days later with DMEM supplemented with 0.5% FCS and 50 μM IPTG. Two days later (days 3-5 of IPTG treatment), this conditioned media was collected and stored at 4° C. up to 15 days before use. Control media were prepared by adding IPTG-free DMEM/0.5% FCS to untreated cells grown to the same density as IPTG-treated cells and collecting the media two days thereafter.
The slow-growing human fibrosarcoma cell line HS 15.T was used to detect mitogenic activity in these conditioned media. For mitogenic activity assays, both types of conditioned media, as well as fresh media and 1:1 mixtures of conditioned media and fresh media were used to test mitogenic activity. In these experiments, the conditioned media were supplemented with 1% or 2% FCS. […] Cells were then collected and their ^3H-thymidine incorporation determined as described by Mosca et al. (1992, Mol. Cell. Biol. 12: 4375-4383).

[3] = test system: HT1080 p21-9 cells; test: Labeling index (3H-thymidine) and mitotic index
Procedure: Cell growth in the presence of IPTG was assayed in three ways: measuring ^3H-thymidine incorporation (termed the “labeling index”); observing the number of mitotic cells in the culture by microscopy (termed the “mitotic index”) and determining the distribution of the culture cells in different portions of the cell cycle (termed the “cell cycle distribution”).
^3H-thymidine incorporation assays were performed substantially as described by Dimri et al. (1995, Proc. Natl. Acad. Sci. USA 92: 9363-9367). Cells were cultured in the presence of ^3H-thymidine for 3 h, and then analyzed by autoradiography. DNA replication was determined by autoradiography ceased entirely by 9 hours after addition of IPTG to the culture media. The mitotic index was determined by observing cells microscopically and calculating the number of cells in mitosis after staining with 5 μg/mL 4,6-diamino-2-phenylindole (DAPI), and images were collected using a Leica DMIRB fluorescence microscope and Vaytek (Fairfield, Iowa) imaging system. Microscopically-detectable mitotic cells disappeared from these cultures by 14 hrs of IPTG treatment.

[4] = test system: HT1080 p27-2 cells; test: Cell cycle distribution by FACS analysis of DNA content; conditions: 50 μM IPTG, 24 hrs
Procedure: This cell population was subcloned, and 20 clonal cell lines were isolated and tested for IPTG-inducible growth inhibition. Cell line showing the strongest growth inhibition was designated HT1080 p16-5. This cell line has been deposited on Jan. 31, 2002 in the American Type Culture Collection (A.T.C.C.), Manassas, Va. and given Accession Number PTA-4020. […] Fractions of cells in different phases of the cell cycle were determined using FACS analysis of DNA content after staining with propidium iodide as described by Jordan et al. (1996, Cancer Res. 56:816-825) using Becton Dickinson FACSort. Cell cycle distribution stabilized after 24 hrs of IPTG treatment, by which time 93% of IPTG-treated cells were arrested in G1. Such G1 arrest is expected from the inhibition of CDK4/6 by p16.
Similarly, the G418-selected population of LNp27RO2 transduced cells was subcloned, and 38 clonal cell lines were isolated and tested for IPTG-inducible growth inhibition. Cell line showing the strongest growth inhibition was designated HT1080 p27-2. This cell line has been deposited on Jan. 31, 2002 in the American Type Culture Collection (A.T.C .C.), Manassas, Va. and given Accession Number PTA-4021. […] Cell cycle distribution stabilized after 24 hrs of IPTG treatment, by which time 89% of IPTG-treated cells were arrested in G1. Such G1 arrest is expected from the inhibition of CDK4/6 by p16.

[5] = test system: p21; test: p21 protein level after IPTG induction (ELISA)
Procedure: FIG. 2A is a graph of the time course of p21 induction after the addition of 50 μM IPTG, where p21 levels were determined by ELISA.
p21 expression from the LNp21CO3 vector in HT1080 p21-9 cells was induced by culturing the cells in DMEM medium containing 10% fetal calf serum (Hyclone, Logan, Utah) and IPTG. […] Upon removing the cells from IPTG-containing media, p21 expression fell about as rapidly as it had risen, returning to pre-induction levels at about 24 hours after IPTG was removed (FIG. 2B).

Compound: CC(C)S[C@@H]1O[C@H](CO)[C@H](O)[C@H](O)[C@H]1O [IPTG, isopropyl-β-thiogalactoside]
- cells arrested in G1 and G2, respectively [1]: 42-43%
- cells arrested with S-phase DNA content [1]: about 15%
- 3H-thymidine incorporation [2]: no effect
- time of IPTG treatment by which mitotic cells disappeared ([3]; DAPI staining, microscopy): ≤ 14 h
- time after addition of IPTG by which DNA replication ceased entirely ([3]; autoradiography of 3H-thymidine incorporation): ≤ 9 h
- cells arrested in G1 [4]: 89%
- time of peak p21 expression post-induction ([5]; 50 μM IPTG): about 24 hours
- increase of p21 levels in IPTG-treated cells ([5]; HT1080 p21-9 cells): 15-20 fold
